Test results: US20110230493A1, “1-OXA-8-Azaspiro [4,5] Decabe-8-Carboxamide Compounds as FAAH Inhibitors” (Pfizer Inc., priority 2008, published 2011)

How the values were obtained:
human FAAH = molecular target: T1, human FAAH (Homo sapiens, UniProt O00519); assay: FAAH assay, human FAAH enzyme inactivation (kinact/Ki); format: biochemical; conditions: pH 7.4, in vitro, oleamide 50 μM, 30° C., read-out: hFAAH kinact/Ki
T1 construct: made in house; host or cells: E. coli
T1 sequence (O00519 1-579): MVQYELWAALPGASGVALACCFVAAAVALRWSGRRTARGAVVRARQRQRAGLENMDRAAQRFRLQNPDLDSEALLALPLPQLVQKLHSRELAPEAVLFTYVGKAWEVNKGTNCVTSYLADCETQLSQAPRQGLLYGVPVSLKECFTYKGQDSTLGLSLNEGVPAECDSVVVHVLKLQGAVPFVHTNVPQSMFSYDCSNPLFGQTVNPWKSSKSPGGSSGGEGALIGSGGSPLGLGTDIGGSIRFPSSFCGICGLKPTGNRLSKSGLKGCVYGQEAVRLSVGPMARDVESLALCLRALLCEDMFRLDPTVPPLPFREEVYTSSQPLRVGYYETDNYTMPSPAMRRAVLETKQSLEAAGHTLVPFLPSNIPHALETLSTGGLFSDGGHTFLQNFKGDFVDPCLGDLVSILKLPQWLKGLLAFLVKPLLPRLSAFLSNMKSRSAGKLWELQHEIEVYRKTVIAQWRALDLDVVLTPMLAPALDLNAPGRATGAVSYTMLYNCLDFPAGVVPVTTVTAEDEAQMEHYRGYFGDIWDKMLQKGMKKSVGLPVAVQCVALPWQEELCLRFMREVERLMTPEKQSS
Experimental: (§1) The FAAH assay was carried out in 384-well clear polystyrene plates (Evergreen Scientific) in a total volume of 50 μl per well in a manner similar to that described by Mileni et al., Proc. Nat. Acad. Sci. 2008, 105, 12820-12824. All percents are by volume. Serial dilutions of compound were initially prepared in 100% DMSO, and then diluted two-fold into HPLC-grade H2O to give 50% DMSO. To each well, was placed the reaction mixture (40 μl) containing 1-4 nM FAAH, 50 mM NaPi, pH 7.4, 3 mM α-ketoglutarate, 0.15 mM NADH, 7.5 U/ml glutamate dehydrogenase, 2 mM ADP, 1 mM EDTA, and 0.1% Triton X-100 (The concentration shown for each component is the final concentration in the assay). To this mixture, was added 5 μl of a compound of Examples 1 to 101 at various concentrations in 50% DMSO (or 5 μl 50% DMSO for controls). This was immediately followed by the addition of 5 μl oleamide (500 μM) dissolved in 75% EtOH/25% DMSO and the reaction mixture was mixed for 1.5 min. The final concentrations of DMSO and EtOH in the assay were each 7.5%. The reactions were incubated at 30° C. and the absorbance at 340 nm was collected over a period of 90 min with readings taken in 30-second intervals using SpectraMax Plus^384 Microplate Spectrophotometer (Molecular Devices, Sunnyvale, Calif.). The human FAAH and rat FAAH used in the assay was prepared as described in the patent application WO 2006/067613 using wild-type E. coli cells transformed in St. Louis, Mo., U.S.A. The purity of the enzyme was greater than 98% based on an analysis by SDS-polyacrylamide gel electrophoresis followed by Coomassie Blue staining.
(§2) Reaction progress curves were corrected for the non-enzymatic oxidation of NADH by subtraction of absorbancies at each time point obtained from control reactions containing no FAAH enzyme. The loss of enzyme activity as a function of time is well-described by the following mathematical equation (1) for a mono-exponential decay: […]
(§3) where At represents the absorbance at time t, A0 represents the absorbance at time zero, and C represents a constant. Observed rates of enzyme inactivation (kobs) were determined from the non-linear reaction progress curves by fitting the corrected absorbancies to an equation for a mono-exponential decay using the third-party Microsoft Excel plug-in, XLfit (IDBS Limited). Secondary plots of kobs vs. inhibitor concentration were prepared from kobs values obtained from progress curves. Second-order rates for enzyme inactivation, expressed as kinact/Ki (M^−1 s^−1), were calculated from the slopes from linear regression analysis of the secondary plot of kobs vs. inhibitor concentration as defined in following equation (2), where [I]<<Ki:
(§4) The concentration of substrate in the assay was equal to the Km for oleamide of 50 μM. Therefore, reported kinact/Ki values are obtained by multiplying resulting slopes by a factor of two (i.e. slope=kinact/(Ki*2)).
(§5) Table 1, below, lists human FAAH (hFAAH) and rat FAAH (rFAAH) enzyme inhibition values for Examples 1-101 as a ratio of kinact/Ki (M^−1 s^−1).

rat FAAH = molecular target: T2, rat FAAH (Rattus norvegicus, UniProt P97612); assay: FAAH assay, rat FAAH enzyme inactivation (kinact/Ki); format: biochemical; conditions: pH 7.4, in vitro, oleamide 50 μM, 30° C., read-out: rFAAH kinact/Ki
T2 construct: made in house; host or cells: E. coli
T2 sequence (P97612 1-579): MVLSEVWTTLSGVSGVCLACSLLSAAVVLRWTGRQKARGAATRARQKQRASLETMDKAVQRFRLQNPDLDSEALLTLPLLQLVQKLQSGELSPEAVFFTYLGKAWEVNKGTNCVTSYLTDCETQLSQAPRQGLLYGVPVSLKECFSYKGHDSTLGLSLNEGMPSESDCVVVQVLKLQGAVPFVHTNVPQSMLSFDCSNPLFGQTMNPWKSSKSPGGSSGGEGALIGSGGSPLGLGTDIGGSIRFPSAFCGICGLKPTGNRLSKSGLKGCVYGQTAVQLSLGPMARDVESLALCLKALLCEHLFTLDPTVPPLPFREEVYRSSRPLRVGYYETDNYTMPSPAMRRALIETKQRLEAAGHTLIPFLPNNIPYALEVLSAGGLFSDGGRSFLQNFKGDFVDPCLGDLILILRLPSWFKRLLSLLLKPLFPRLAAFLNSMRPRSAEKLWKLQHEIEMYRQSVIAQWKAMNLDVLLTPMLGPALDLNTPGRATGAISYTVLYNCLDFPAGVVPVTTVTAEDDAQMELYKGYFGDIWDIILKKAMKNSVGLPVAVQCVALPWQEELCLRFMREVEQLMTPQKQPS
Experimental: as §1, §2, §3, §4, §5

kinact/KI (human FAAH)	kinact/KI (rat FAAH)	Compound
2910 M⁻¹ s⁻¹	3380 M⁻¹ s⁻¹	O=C(Nc1cccnn1)N1CCC2(CC1)CC(c1cccc(Oc3ccc(Cl)cn3)c1)CO2 (racemic) [Example 4, (3RS)-3-{3-[(5-chloropyridin-2-yl)oxy]phenyl}-N-pyridazin-3-yl-1-oxa-8-azaspiro[4.5]decane-8-carboxamide]
2660 M⁻¹ s⁻¹	3620 M⁻¹ s⁻¹	O=C(Nc1cccnn1)N1CCC2(CC1)CC(c1cccc(Oc3ccc(Br)cn3)c1)CO2 (racemic) [Example 5, (3RS)-3-{3-[(5-bromopyridin-2-yl)oxy]phenyl}-N-pyridazin-3-yl-1-oxa-8-azaspiro[4.5]decane-8-carboxamide]
2320 M⁻¹ s⁻¹	1750 M⁻¹ s⁻¹	O=C(Nc1cccnc1)N1CCC2(CC1)CC(c1cccc(Oc3ccc(Br)cn3)c1)CO2 (racemic) [Example 6, (3RS)-3-{3-[(5-bromopyridin-2-yl)oxy]phenyl}-N-pyridin-3-yl-1-oxa-8-azaspiro[4.5]decane-8-carboxamide]
1800 M⁻¹ s⁻¹	3110 M⁻¹ s⁻¹	Cc1noc(NC(=O)N2CCC3(CC2)CC(c2cccc(OC(F)(F)F)c2)CO3)c1C (racemic) [Example 13, (3RS)-N-(3,4-dimethylisoxazol-5-yl)-3-[3-(trifluoromethoxy)phenyl]-1-oxa-8-azaspiro[4.5]decane-8-carboxamide]
2040 M⁻¹ s⁻¹	2670 M⁻¹ s⁻¹	Cc1noc(NC(=O)N2CCC3(CC2)CC(c2cccc(Cl)c2)CO3)c1C (racemic) [Example 14, (3RS)-3-(3-chlorophenyl)-N-(3,4-dimethylisoxazol-5-yl)-1-oxa-8-azaspiro[4.5]decane-8-carboxamide]
2430 M⁻¹ s⁻¹	4360 M⁻¹ s⁻¹	Cc1noc(NC(=O)N2CCC3(CC2)CC(c2ccc(Cl)c(Cl)c2)CO3)c1C (racemic) [Example 15, (3RS)-3-(3,4-dichlorophenyl)-N-(3,4-dimethylisoxazol-5-yl)-1-oxa-8-azaspiro[4.5]decane-8-carboxamide]
1990 M⁻¹ s⁻¹	3590 M⁻¹ s⁻¹	Cc1noc(NC(=O)N2CCC3(CC2)CC(c2cc(F)cc(Cl)c2)CO3)c1C (racemic) [Example 16, (3RS)-3-(3-chloro-5-fluorophenyl)-N-(3,4-dimethylisoxazol-5-yl)-1-oxa-8-azaspiro[4.5]decane-8-carboxamide]
6960 M⁻¹ s⁻¹	6690 M⁻¹ s⁻¹	Cc1noc(NC(=O)N2CCC3(CC2)CC(c2ccc(OCc4ccc(F)cc4)cc2)CO3)c1C (racemic) [Example 17, (3RS)-N-(3,4-dimethylisoxazol-5-yl)-3-{4-[(4-fluorobenzyl)oxy]phenyl}-1-oxa-8-azaspiro[4.5]decane-8-carboxamide]
2290 M⁻¹ s⁻¹	2840 M⁻¹ s⁻¹	Cc1noc(NC(=O)N2CCC3(CC2)CC(c2ccc(OCc4ccccc4Cl)c(Cl)c2)CO3)c1C (racemic) [Example 18, (3RS)-3-{3-chloro-4-[(2-chlorobenzyl)oxy]phenyl}-N-(3,4-dimethylisoxazol-5-yl)-1-oxa-8-azaspiro[4.5]decane-8-carboxamide]
6710 M⁻¹ s⁻¹	7120 M⁻¹ s⁻¹	Cc1noc(NC(=O)N2CCC3(CC2)CC(c2ccc(OCc4ccc(F)cc4)c(Cl)c2)CO3)c1C (racemic) [Example 19, (3RS)-3-{3-chloro-4-[(4-fluorobenzyl)oxy]phenyl}-N-(3,4-dimethylisoxazol-5-yl)-1-oxa-8-azaspiro[4.5]decane-8-carboxamide]
3970 M⁻¹ s⁻¹	4390 M⁻¹ s⁻¹	Cc1noc(NC(=O)N2CCC3(CC2)CC(c2ccc(OCc4ccccc4)c(Cl)c2)CO3)c1C (racemic) [Example 20, (3RS)-3-[4-(benzyloxy)-3-chlorophenyl]-N-(3,4-dimethylisoxazol-5-yl)-1-oxa-8-azaspiro[4.5]decane-8-carboxamide]
3100 M⁻¹ s⁻¹	3550 M⁻¹ s⁻¹	Cc1noc(NC(=O)N2CCC3(CC2)CC(c2ccc(OCc4cccc(Cl)c4)c(Cl)c2)CO3)c1C (racemic) [Example 21, (3RS)-3-{3-chloro-4-[(3-chlorobenzyl)oxy]phenyl}-N-(3,4-dimethylisoxazol-5-yl)-1-oxa-8-azaspiro[4.5]decane-8-carboxamide]
6030 M⁻¹ s⁻¹	3630 M⁻¹ s⁻¹	Cc1noc(NC(=O)N2CCC3(CC2)CC(c2ccc(OCc4cccc(F)c4)cc2)CO3)c1C (racemic) [Example 22, (3RS)-N-(3,4-dimethylisoxazol-5-yl)-3-{4-[(3-fluorobenzyl)oxy]phenyl}-1-oxa-8-azaspiro[4.5]decane-8-carboxamide]
6950 M⁻¹ s⁻¹	10900 M⁻¹ s⁻¹	Cc1noc(NC(=O)N2CCC3(CC2)CC(c2ccc(OCc4ccc(Cl)cc4)cc2)CO3)c1C (racemic) [Example 23, (3RS)-3-{4-[(4-chlorobenzyl)oxy]phenyl}-N-(3,4-dimethylisoxazol-5-yl)-1-oxa-8-azaspiro[4.5]decane-8-carboxamide]
788 M⁻¹ s⁻¹	431 M⁻¹ s⁻¹	Cc1noc(NC(=O)N2CCC3(CC2)CC(c2ccc4c(c2)OCO4)CO3)c1C (racemic) [Example 24, (3RS)-3-(1,3-benzodioxol-5-yl)-N-(3,4-dimethylisoxazol-5-yl)-1-oxa-8-azaspiro[4.5]decane-8-carboxamide]
2090 M⁻¹ s⁻¹	2240 M⁻¹ s⁻¹	Cc1noc(NC(=O)N2CCC3(CC2)CC(c2ccc4ccccc4c2)CO3)c1C (racemic) [Example 25, (3RS)-N-(3,4-dimethylisoxazol-5-yl)-3-(2-naphthyl)-1-oxa-8-azaspiro[4.5]decane-8-carboxamide]
2140 M⁻¹ s⁻¹	2520 M⁻¹ s⁻¹	Cc1noc(NC(=O)N2CCC3(CC2)CC(c2ccc(Cl)c(F)c2)CO3)c1C (racemic) [Example 26, (3RS)-3-(4-chloro-3-fluorophenyl)-N-(3,4-dimethylisoxazol-5-yl)-1-oxa-8-azaspiro[4.5]decane-8-carboxamide]
2090 M⁻¹ s⁻¹	1140 M⁻¹ s⁻¹	Cc1noc(NC(=O)N2CCC3(CC2)CC(c2ccc(Cl)cc2F)CO3)c1C (racemic) [Example 27, (3RS)-3-(4-chloro-2-fluorophenyl)-N-(3,4-dimethylisoxazol-5-yl)-1-oxa-8-azaspiro[4.5]decane-8-carboxamide]
